Measurements: ChEMBL document CHEMBL1201862, “PubChem BioAssay data set” (2004)
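Exposure lasted 48 hours, with cells grown in 96-well plates and compounds tested at five concentrations. The concentration for 50% growth inhibition is given as GI50.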 Calls of active or inactive are those of the source. No stated cut-off is given here; in the data, active = GI50 up to about 1.1 µM and inactive = higher.

Key:
Assay in all cases: NCI anticancer screen, dose series, 48 h
A549 = test system: A549
ACHN = test system: ACHN
COLO 205 = test system: COLO 205
HCT-116 = test system: HCT-116
HOP-62 = test system: HOP-62
Hs-578T = test system: Hs-578T
IGROV-1 = test system: IGROV-1
LOX IMVI = test system: LOX IMVI
OVCAR-8 = test system: OVCAR-8
RPMI-8226 = test system: RPMI-8226
SK-MEL-2 = test system: SK-MEL-2
SK-MEL-5 = test system: SK-MEL-5
SK-OV-3 = test system: SK-OV-3
SW-620 = test system: SW-620
T47D = test system: T47D
TK-10 = test system: TK-10
U-251 = test system: U-251
UACC-62 = test system: UACC-62
UO-31 = test system: UO-31
SR = test system: SR

Measured: GI50

Cc1ccc2ccc(O)cc2c1
inactive: A549 72.4 µM | ACHN 53.6 µM | COLO 205 > 100 µM | HCT-116 68.9 µM | HOP-62 > 100 µM | Hs-578T 37.9 µM | IGROV-1 20.7 µM | LOX IMVI 30.2 µM | OVCAR-8 23.3 µM | RPMI-8226 27.9 µM | SK-MEL-2 38.1 µM | SK-MEL-5 57.4 µM | SK-OV-3 26.9 µM | SW-620 37 µM | T47D 35.3 µM | TK-10 > 100 µM | U-251 23.1 µM | UACC-62 43.6 µM | UO-31 23 µM

COc1cc(CNc2nc3ccccc3nc2C(=O)O)cc(OC)c1OC
inactive: A549 > 100 µM | ACHN > 100 µM | COLO 205 > 100 µM | HCT-116 > 100 µM | HOP-62 > 100 µM | Hs-578T 42.1 µM | IGROV-1 > 100 µM | LOX IMVI > 100 µM | OVCAR-8 > 100 µM | RPMI-8226 > 100 µM | SK-MEL-5 98.4 µM | SK-OV-3 69.8 µM | SR 99.1 µM | SW-620 > 100 µM | T47D > 100 µM | TK-10 > 100 µM | U-251 > 100 µM | UACC-62 74 µM | UO-31 49.2 µM

O=C(Cn1c2ccc(Br)cc2c2nc3ccccc3nc21)NC1CCCCC1
inactive: A549 > 100 µM | ACHN > 100 µM | COLO 205 > 100 µM | HCT-116 > 100 µM | HOP-62 > 100 µM | Hs-578T 43.3 µM | IGROV-1 > 100 µM | LOX IMVI > 100 µM | OVCAR-8 > 100 µM | RPMI-8226 > 100 µM | SK-MEL-2 > 100 µM | SK-MEL-5 > 100 µM | SK-OV-3 > 100 µM | SW-620 > 100 µM | T47D 60.4 µM | TK-10 > 100 µM | U-251 > 100 µM | UACC-62 > 100 µM | UO-31 > 100 µM

Clc1nc(NCCc2ccccc2)c2ncn(-c3ccccc3)c2n1
inactive: A549 26.4 µM | ACHN 29.4 µM | COLO 205 23.2 µM | HCT-116 22 µM | HOP-62 20.6 µM | Hs-578T 24.4 µM | IGROV-1 40.8 µM | LOX IMVI 21.3 µM | OVCAR-8 28.4 µM | RPMI-8226 18.5 µM | SK-MEL-2 1.83 µM | SK-MEL-5 18.5 µM | SK-OV-3 20.4 µM | SW-620 29.3 µM | T47D 23.4 µM | TK-10 21.1 µM | U-251 16.2 µM | UACC-62 20.8 µM | UO-31 12.9 µM

C=C(C)CCN(C(=O)OC(C)(C)C)c1cc(C(C)C)co1
inactive: A549 48.4 µM | ACHN 73.6 µM | COLO 205 58.2 µM | HCT-116 47.9 µM | HOP-62 > 100 µM | IGROV-1 > 100 µM | LOX IMVI 28 µM | OVCAR-8 37.5 µM | RPMI-8226 20.2 µM | SK-MEL-2 28.5 µM | SK-MEL-5 44.3 µM | SK-OV-3 > 100 µM | SR 33.5 µM | SW-620 56 µM | T47D 24.8 µM | TK-10 > 100 µM | U-251 26.7 µM | UACC-62 86.9 µM | UO-31 > 100 µM

O=c1[nH]nc(Cc2ccccc2)n1/N=C/c1cccs1
inactive: A549 > 100 µM | ACHN > 100 µM | COLO 205 > 100 µM | HCT-116 > 100 µM | HOP-62 > 100 µM | Hs-578T > 100 µM | LOX IMVI > 100 µM | OVCAR-8 > 100 µM | RPMI-8226 47.1 µM | SK-MEL-2 > 100 µM | SK-OV-3 > 100 µM | SW-620 > 100 µM | T47D > 100 µM | U-251 48 µM | UACC-62 36 µM | UO-31 > 100 µM

Clc1cc(-c2ccccc2)nc2ccccc12
inactive: A549 35.6 µM | ACHN 38.5 µM | COLO 205 19.5 µM | HCT-116 32.5 µM | HOP-62 > 100 µM | Hs-578T 30.1 µM | IGROV-1 15.1 µM | LOX IMVI 40 µM | OVCAR-8 59.7 µM | RPMI-8226 23.7 µM | SK-MEL-2 19.1 µM | SK-MEL-5 18.1 µM | SK-OV-3 > 100 µM | SW-620 43.6 µM | T47D 31.3 µM | TK-10 34 µM | U-251 35.4 µM | UACC-62 42.6 µM | UO-31 32.9 µM
